Laboratory results as given in PMC5218480 (PLoS ONE, 2017).

Tested on: MV-4-11 cells
Experiment: Gene expression microarray analysis (Affymetrix PrimeView) and GSEA
Assay type: cell-based, human
Parameters: RFU PODN (11730768_x_at) / Fold change /veh PODN (11730768_x_at) / RFU LINC00158 (11744669_a_at) / Fold change /veh LINC00158 (11744669_a_at) / RFU DUSP10 (11751237_a_at) / Fold change /veh DUSP10 (11751237_a_at) / RFU ID3 (11757404_x_at) / Fold change /veh ID3 (11757404_x_at) / RFU PLEKHG5 (11737974_s_at) / Fold change /veh PLEKHG5 (11737974_s_at) / RFU LRRC4B (11730491_at) / Fold change /veh LRRC4B (11730491_at) / RFU GIMAP4 (11747438_a_at) / Fold change /veh GIMAP4 (11747438_a_at) / RFU KRT8 (11758183_x_at) / Fold change /veh KRT8 (11758183_x_at) / RFU CNN1 (11734310_a_at) / Fold change /veh CNN1 (11734310_a_at) / RFU VPS37D (11726825_at) / Fold change /veh VPS37D (11726825_at) / RFU C10orf10 (11716522_x_at) / Fold change /veh C10orf10 (11716522_x_at) / RFU KIR2DL2 /// KIR2DL4 /// KIR2DL5A /// KIR2DL5B /// KIR2DS1 /// KIR2DS2 /// KIR2DS3 /// KIR2DS4 /// KIR3DL3 /// KIR3DL3 /// KIR3DS1 (11738374_at) / Fold change /veh KIR2DL2 /// KIR2DL4 /// KIR2DL5A /// KIR2DL5B /// KIR2DS1 /// KIR2DS2 /// KIR2DS3 /// KIR2DS4 /// KIR3DL3 /// KIR3DL3 /// KIR3DS1 (11738374_at) / RFU C1QL1 (11718748_at) / Fold change /veh C1QL1 (11718748_at) / RFU TMPRSS4 (11747572_a_at) / Fold change /veh TMPRSS4 (11747572_a_at) / RFU HAMP (11756126_x_at) / Fold change /veh HAMP (11756126_x_at) / RFU RNFT2 (11725882_a_at) / Fold change /veh RNFT2 (11725882_a_at) / RFU NR4A2 (11747474_a_at) / Fold change /veh NR4A2 (11747474_a_at) / RFU ABCC12 (11746883_a_at) / Fold change /veh ABCC12 (11746883_a_at) / RFU TMEM136 (11760407_x_at) / Fold change /veh TMEM136 (11760407_x_at) / RFU CLDN22 /// WWC2 (11732394_at) / Fold change /veh CLDN22 /// WWC2 (11732394_at) / RFU HLA-DPB1 (11760878_x_at) / Fold change /veh HLA-DPB1 (11760878_x_at) / RFU SPINT1 (11716480_a_at) / Fold change /veh SPINT1 (11716480_a_at) / RFU GAP43 (11754022_s_at) / Fold change /veh GAP43 (11754022_s_at) / RFU A4GNT (11735810_at) / Fold change /veh A4GNT (11735810_at) / RFU PRB3 (11715151_x_at) / Fold change /veh PRB3 (11715151_x_at) / RFU TUBB4B (11761932_at) / Fold change /veh TUBB4B (11761932_at) / RFU CAPN14 (11732068_a_at) / Fold change /veh CAPN14 (11732068_a_at) / RFU TMCC2 (11721928_a_at) / Fold change /veh TMCC2 (11721928_a_at) / RFU IRGQ (11745062_a_at) / Fold change /veh IRGQ (11745062_a_at) / RFU FAM174B (11720279_a_at) / Fold change /veh FAM174B (11720279_a_at) / RFU TMPRSS4 (11748680_a_at) / Fold change /veh TMPRSS4 (11748680_a_at) / RFU FAM212B (11763350_a_at) / Fold change /veh FAM212B (11763350_a_at) / RFU PLEKHG5 (11743358_a_at) / Fold change /veh PLEKHG5 (11743358_a_at) / RFU ZSCAN30 (11745921_a_at) / Fold change /veh ZSCAN30 (11745921_a_at) / RFU CMKLR1 (11741424_a_at) / Fold change /veh CMKLR1 (11741424_a_at) / RFU LOC101060620 /// MAPK8IP1 (11723275_at) / Fold change /veh LOC101060620 /// MAPK8IP1 (11723275_at) / RFU SPTSSB (11747773_x_at) / Fold change /veh SPTSSB (11747773_x_at) / RFU PRSS12 (11739890_at) / Fold change /veh PRSS12 (11739890_at) / RFU BIN1 (11741810_x_at) / Fold change /veh BIN1 (11741810_x_at) / RFU WNT11 (11732464_a_at) / Fold change /veh WNT11 (11732464_a_at) / RFU C10orf10 (11716521_a_at) / Fold change /veh C10orf10 (11716521_a_at) / RFU C5orf56 (11738089_at) / Fold change /veh C5orf56 (11738089_at) / RFU CYB561 (11721691_x_at) / Fold change /veh CYB561 (11721691_x_at) / RFU ANKRD19P (11752326_a_at) / Fold change /veh ANKRD19P (11752326_a_at) / RFU OR2T12 /// OR2T33 /// OR2T8 (11738714_s_at) / Fold change /veh OR2T12 /// OR2T33 /// OR2T8 (11738714_s_at) / RFU VCAN (11748164_a_at) / Fold change /veh VCAN (11748164_a_at) / RFU JSRP1 (11732532_at) / Fold change /veh JSRP1 (11732532_at) / RFU KRTAP10-11 (11738290_x_at) / Fold change /veh KRTAP10-11 (11738290_x_at) / RFU MYO3A (11730013_a_at) / Fold change /veh MYO3A (11730013_a_at) / RFU EBF3 (11725865_a_at) / Fold change /veh EBF3 (11725865_a_at) / RFU CAMK2N1 (11719241_x_at) / Fold change /veh CAMK2N1 (11719241_x_at) / RFU C5orf56 (11738088_a_at) / Fold change /veh C5orf56 (11738088_a_at) / RFU OLFML3 (11715873_a_at) / Fold change /veh OLFML3 (11715873_a_at) / RFU LOC100653217 /// NTM (11731650_a_at) / Fold change /veh LOC100653217 /// NTM (11731650_a_at) / RFU MAPK11 (11762145_a_at) / Fold change /veh MAPK11 (11762145_a_at) / RFU FIZ1 (11724087_x_at) / Fold change /veh FIZ1 (11724087_x_at) / RFU OASL (11726364_x_at) / Fold change /veh OASL (11726364_x_at) / RFU SOX15 (11748057_x_at) / Fold change /veh SOX15 (11748057_x_at) / RFU CD79A (11719716_a_at) / Fold change /veh CD79A (11719716_a_at) / RFU HIST1H1D (11736915_at) / Fold change /veh HIST1H1D (11736915_at) / RFU CASKIN2 (11723855_a_at) / Fold change /veh CASKIN2 (11723855_a_at) / RFU LOC730098 (11760151_x_at) / Fold change /veh LOC730098 (11760151_x_at) / RFU OR4N2 (11742367_at) / Fold change /veh OR4N2 (11742367_at) / RFU PRRT2 (11749266_a_at) / Fold change /veh PRRT2 (11749266_a_at) / RFU SNX32 (11753110_a_at) / Fold change /veh SNX32 (11753110_a_at) / RFU CDHR5 (11726645_a_at) / Fold change /veh CDHR5 (11726645_a_at) / RFU RCAN1 (11760418_a_at) / Fold change /veh RCAN1 (11760418_a_at) / RFU FAM167A (11723789_a_at) / Fold change /veh FAM167A (11723789_a_at) / RFU FAM26E (11764081_at) / Fold change /veh FAM26E (11764081_at) / RFU ISYNA1 (11749810_s_at) / Fold change /veh ISYNA1 (11749810_s_at) / RFU ACY1 (11761880_at) / Fold change /veh ACY1 (11761880_at) / RFU 11764098_at / Fold change /veh 11764098_at / RFU SAMD14 (11745864_x_at) / Fold change /veh SAMD14 (11745864_x_at) / RFU NPB (11741838_a_at) / Fold change /veh NPB (11741838_a_at) / RFU TMPRSS6 (11731388_a_at) / Fold change /veh TMPRSS6 (11731388_a_at) / RFU KRTAP10-2 (11738614_at) / Fold change /veh KRTAP10-2 (11738614_at) / RFU ARHGAP8 /// PRR5-ARHGAP8 (11727945_x_at) / Fold change /veh ARHGAP8 /// PRR5-ARHGAP8 (11727945_x_at) / RFU KRTAP5-7 /// NADSYN1 (11734609_at) / Fold change /veh KRTAP5-7 /// NADSYN1 (11734609_at) / RFU RASL12 (11751679_a_at) / Fold change /veh RASL12 (11751679_a_at) / RFU CDKN2B (11736163_a_at) / Fold change /veh CDKN2B (11736163_a_at) / RFU PRF1 (11729649_at) / Fold change /veh PRF1 (11729649_at) / RFU, ZNF638 /// ZNF638-IT1 / Fold change vs veh, ZNF638 /// ZNF638-IT1 / RFU, PANK3 / Fold change vs veh, PANK3 / RFU, SH3YL1 / Fold change vs veh, SH3YL1 / RFU, ZEB2 / Fold change vs veh, ZEB2 / RFU, NRIP1 / Fold change vs veh, NRIP1 / RFU, PTTG1IP / Fold change vs veh, PTTG1IP / RFU, CAPN2 / Fold change vs veh, CAPN2 / RFU, MED14 / Fold change vs veh, MED14 / RFU, SNORA58 / Fold change vs veh, SNORA58 / RFU, C1orf63 / Fold change vs veh, C1orf63 / RFU, LRRFIP1 / Fold change vs veh, LRRFIP1 / RFU, NDUFAF7 / Fold change vs veh, NDUFAF7 / RFU, SLC12A2 / Fold change vs veh, SLC12A2 / RFU, IBTK / Fold change vs veh, IBTK / RFU, ESF1 / Fold change vs veh, ESF1 / Fold change vs veh, TMEM50B / RFU, TAOK1 / Fold change vs veh, TAOK1 / RFU, ACBD3 / Fold change vs veh, ACBD3 / RFU, TMA16 / Fold change vs veh, TMA16 / RFU, RWDD3 / Fold change vs veh, RWDD3 / RFU, BCAT1 / Fold change vs veh, BCAT1 / RFU, EDEM3 / Fold change vs veh, EDEM3 / RFU, TMEM33 / Fold change vs veh, TMEM33 / RFU, WDR75 / Fold change vs veh, WDR75 / RFU, AHCTF1 / Fold change vs veh, AHCTF1 / RFU, TFRC / Fold change vs veh, TFRC / RFU, ZDHHC17 / Fold change vs veh, ZDHHC17 / RFU, NOM1 / Fold change vs veh, NOM1 / RFU, ARL8B / Fold change vs veh, ARL8B / RFU, ZBTB11 / Fold change vs veh, ZBTB11 / RFU, TAMM41 / Fold change vs veh, TAMM41 / RFU, KIAA1704 /// LOC100996395 / Fold change vs veh, KIAA1704 /// LOC100996395 / RFU, ING1 / Fold change vs veh, ING1 / RFU, TRMT61B / Fold change vs veh, TRMT61B / RFU, FUBP3 / Fold change vs veh, FUBP3 / RFU, TP53 / Fold change vs veh, TP53 / RFU, TNKS2 / Fold change vs veh, TNKS2 / RFU, ZFP14 / Fold change vs veh, ZFP14 / RFU, ACTR2 / Fold change vs veh, ACTR2 / RFU, PPP3R1 / Fold change vs veh, PPP3R1 / RFU, PIK3R1 / Fold change vs veh, PIK3R1 / RFU, HNRNPA1 / Fold change vs veh, HNRNPA1 / RFU, RNF170 / Fold change vs veh, RNF170 / RFU, ZNF28 / Fold change vs veh, ZNF28 / RFU, RNGTT / Fold change vs veh, RNGTT / RFU, OGT / Fold change vs veh, OGT / RFU, BRD1 / Fold change vs veh, BRD1 / RFU, MARS / Fold change vs veh, MARS / RFU, ZNF655 / Fold change vs veh, ZNF655 / RFU, FAHD1 / Fold change vs veh, FAHD1 / RFU, BDP1 / Fold change vs veh, BDP1 / RFU, LRRCC1 / Fold change vs veh, LRRCC1 / RFU, ARID1A / Fold change vs veh, ARID1A / RFU, ZNF146 / Fold change vs veh, ZNF146 / RFU, ZNF330 / Fold change vs veh, ZNF330 / RFU, GPN3 / Fold change vs veh, GPN3 / RFU, C9orf123 / Fold change vs veh, C9orf123 / RFU, N4BP2L2 / Fold change vs veh, N4BP2L2 / RFU, ARFIP1 / Fold change vs veh, ARFIP1 / RFU, FAM179B / Fold change vs veh, FAM179B / RFU, BCL10 / Fold change vs veh, BCL10 / RFU, UHRF1BP1L / Fold change vs veh, UHRF1BP1L / RFU, BET1 / Fold change vs veh, BET1 / RFU, CNOT2 / Fold change vs veh, CNOT2 / RFU, ZNF268 / Fold change vs veh, ZNF268 / Fold change vs veh, ZNF507 / RFU, DGCR2 / Fold change vs veh, DGCR2 / RFU, WDSUB1 / Fold change vs veh, WDSUB1 / Fold change vs veh, HSP90B1 /// MIR3652 / RFU, ADSS / Fold change vs veh, ADSS / RFU, GK / Fold change vs veh, GK / RFU, ZNF148 / Fold change vs veh, ZNF148 / RFU, TAF9 / Fold change vs veh, TAF9 / RFU, SLC1A5 / Fold change vs veh, SLC1A5 / RFU, SLMO2 / Fold change vs veh, SLMO2 / RFU, ABCC4 / Fold change vs veh, ABCC4 / RFU, LOC101060439 /// RAP1B / Fold change vs veh, LOC101060439 /// RAP1B / RFU, RFX7 / Fold change vs veh, RFX7 / RFU, GTPBP10 / Fold change vs veh, GTPBP10 / RFU, CNEP1R1 / Fold change vs veh, CNEP1R1 / RFU, BIVM-ERCC5 /// ERCC5 / Fold change vs veh, BIVM-ERCC5 /// ERCC5 / RFU, ILF3 / Fold change vs veh, ILF3 / RFU 11762660_at / Fold change /veh 11762660_at / RFU VCAN (11757783_s_at) / Fold change /veh VCAN (11757783_s_at) / RFU DDX43 (11728927_at) / Fold change /veh DDX43 (11728927_at) / RFU KRT8 (11758188_x_at) / Fold change /veh KRT8 (11758188_x_at) / RFU NKD1 (11759106_at) / Fold change /veh NKD1 (11759106_at) / RFU SRD5A1 (11742802_a_at) / Fold change /veh SRD5A1 (11742802_a_at) / RFU TPSAB1 /// TPSB2 (11721975_s_at) / Fold change /veh TPSAB1 /// TPSB2 (11721975_s_at) / RFU GSTM3 (11746129_a_at) / Fold change /veh GSTM3 (11746129_a_at) / RFU IL23R (11737362_x_at) / Fold change /veh IL23R (11737362_x_at) / RFU TMEM51 (11727254_a_at) / Fold change /veh TMEM51 (11727254_a_at) / RFU PIWIL2 (11732686_x_at) / Fold change /veh PIWIL2 (11732686_x_at) / RFU ORM1 (11744905_x_at) / Fold change /veh ORM1 (11744905_x_at) / RFU CCDC152 (11743942_at) / Fold change /veh CCDC152 (11743942_at) / RFU ECM1 (11717891_a_at) / Fold change /veh ECM1 (11717891_a_at) / RFU IL23R (11748794_a_at) / Fold change /veh IL23R (11748794_a_at) / RFU TNFAIP8L3 (11732012_x_at) / Fold change /veh TNFAIP8L3 (11732012_x_at) / RFU MBOAT4 (11741988_at) / Fold change /veh MBOAT4 (11741988_at) / RFU 11764193_at / Fold change /veh 11764193_at / RFU TMEM53 (11763286_at) / Fold change /veh TMEM53 (11763286_at) / RFU MAGEB2 (11727129_at) / Fold change /veh MAGEB2 (11727129_at) / RFU TMEM200A (11744735_a_at) / Fold change /veh TMEM200A (11744735_a_at) / RFU CCDC152 (11751479_a_at) / Fold change /veh CCDC152 (11751479_a_at) / RFU FAM211A (11726209_a_at) / Fold change /veh FAM211A (11726209_a_at) / RFU RGS16 (11746705_a_at) / Fold change /veh RGS16 (11746705_a_at) / RFU VCAN (11755009_s_at) / Fold change /veh VCAN (11755009_s_at) / RFU RHOB (11743442_s_at) / Fold change /veh RHOB (11743442_s_at) / RFU RGS16 (11720943_a_at) / Fold change /veh RGS16 (11720943_a_at) / RFU RGS16 (11720944_at) / Fold change /veh RGS16 (11720944_at) / RFU, VPS4B / Fold change vs veh, VPS4B / RFU, CREB1 / Fold change vs veh, CREB1 / RFU, DNAJC13 / Fold change vs veh, DNAJC13 / RFU, GNAQ / Fold change vs veh, GNAQ / RFU, CDK5R1 / Fold change vs veh, CDK5R1 / RFU, ZRANB3 / Fold change vs veh, ZRANB3 / RFU, CUL4A / Fold change vs veh, CUL4A / RFU, CCNY / Fold change vs veh, CCNY / RFU, UFL1 / Fold change vs veh, UFL1 / RFU, COG3 / Fold change vs veh, COG3 / RFU, DIAPH2 / Fold change vs veh, DIAPH2 / RFU, SKA2 / Fold change vs veh, SKA2 / RFU, AFF3 / Fold change vs veh, AFF3 / RFU, LMF1 / Fold change vs veh, LMF1 / RFU, IPO11 / Fold change vs veh, IPO11 / RFU, DFFB / Fold change vs veh, DFFB / RFU, FOXP1 / Fold change vs veh, FOXP1 / RFU, CARD8 / Fold change vs veh, CARD8 / RFU, STRN3 / Fold change vs veh, STRN3 / RFU, ADK / Fold change vs veh, ADK / RFU, RASSF2 / Fold change vs veh, RASSF2 / RFU, WIPF1 / Fold change vs veh, WIPF1 / RFU, LARP1B / Fold change vs veh, LARP1B / RFU, RASA1 / Fold change vs veh, RASA1 / RFU, RB1 / Fold change vs veh, RB1 / RFU, PPFIA1 / Fold change vs veh, PPFIA1 / RFU, MAT2A / Fold change vs veh, MAT2A / RFU, CCT5 / Fold change vs veh, CCT5 / RFU, WDR92 / Fold change vs veh, WDR92 / RFU, CUX1 / Fold change vs veh, CUX1 / RFU, TTC7A / Fold change vs veh, TTC7A / RFU, TMEM135 / Fold change vs veh, TMEM135 / RFU, DEPTOR / Fold change vs veh, DEPTOR / RFU, CPM / Fold change vs veh, CPM / RFU, DNAJB6 / Fold change vs veh, DNAJB6 / RFU, CACNA2D3 / Fold change vs veh, CACNA2D3 / RFU, DTX4 / Fold change vs veh, DTX4 / RFU, TFCP2 / Fold change vs veh, TFCP2 / RFU, GMCL1 /// GMCL1P1 / Fold change vs veh, GMCL1 /// GMCL1P1 / RFU, AEBP2 / Fold change vs veh, AEBP2 / RFU, SNHG1 /// SNORD22 /// SNORD25 /// SNORD26 /// SNORD27 /// SNORD28 /// SNORD29 /// SNORD31 / Fold change vs veh, SNHG1 /// SNORD22 /// SNORD25 /// SNORD26 /// SNORD27 /// SNORD28 /// SNORD29 /// SNORD31 / Fold change (Aza/veh), C12orf56 (ProbeSet 11735607_a_at) / Fold change (ACY-1035/veh), C12orf56 (ProbeSet 11735607_a_at) / Fold change (Aza/veh), FGFR1OP (ProbeSet 11751329_s_at) / Fold change (ACY-1035/veh), FGFR1OP (ProbeSet 11751329_s_at) / Fold change (Aza/veh), VPS36 (ProbeSet 11739960_a_at) / Fold change (ACY-1035/veh), VPS36 (ProbeSet 11739960_a_at) / RFU SYPL1 (11715823_x_at) / Fold change /veh SYPL1 (11715823_x_at) / RFU IGFBP7 (11715501_s_at) / Fold change /veh IGFBP7 (11715501_s_at) / RFU REEP3 (11722064_at) / Fold change /veh REEP3 (11722064_at) / RFU IGLL1 (11728026_x_at) / Fold change /veh IGLL1 (11728026_x_at): dose or concentration left out as unconfirmed
Conditions: MV-4-11 cells, 48 hours

Nc1ccc(-c2cccs2)cc1NC(=O)c1ccc2c(c1)cc(C1CC1)n2CCN1CCOCC1 [ACY-1035]
RFU HIST1H1D (11736915_at): 13.65 RFU
